Source: patent publication US20140298493A1, “PIK3CA H1047R Knock-In Non-Human Animal Breast Cancer Model” (priority 2011, published 2014)
Entries after “also recorded” stand apart in the source; their conditions may differ.

What was measured:
[1] = test system: PIK3CA^e20H1047R mammary tumor explants (spindle cell tumor with TP53 mutations) grown as xenografts; experiment: Drug efficacy study: mammary tumor explants implanted subcutaneously near mammary fat pad, tumor growth inhibition and time to progression; type: in vivo, C.B-17 SCID beige mice
Procedure: Tumor sizes and mouse body weights were recorded twice weekly over the course of the study. […] The 2.5 and 97.5 percentiles of the simulated distribution were used as the […] UIs.

[2] = test system: pAKT and pS6 (PI3K pathway) in PIK3CA^e20H1047R mammary tumor explants; experiment: Western blot of tumors from GDC-0941 treated mice (PI3K pathway inhibition); type: in vivo, C.B-17 SCID beige mice; details: at least up to 10 hours following treatment
Procedure: Frozen tumors were weighed and lysed with a pestle PP (Scienceware, NJ) in cell extract buffer (Invitrogen, CA) supplemented with protease inhibitors (F. Hoffman-La Roche, Ltd., Germany), 1 mM phenylmethysulfonyl fluoride, and phosphatase inhibitor cocktails 1 and 2 (Sigma, Mo.). Protein concentrations were determined using the Pierce BCA Protein Assay Kit (Rockford, Ill.). For Western blots equal amounts of protein were separated by electrophoresis through NuPage Bis-Tris 4-12% gradient gels (Invitrogen, CA), proteins were transferred onto nitrocellulose pore membranes using the iBlot system (Invitrogen, CA). Primary antibodies used for blotting include pAkt (Ser473), pAkt (Thr308), total Akt, pS6 (Ser235/236), pS6 (Ser240/242) and total S6 antibodies were obtained from Cell Signaling Technology (Danvers, Mass.), and anti-actin antibody was purchased from Sigma-Aldrich (St. Louis, Mo.). Chemiluminescence western blotting detection (Amersham Biosciences, PA) coupled with appropriate secondary horseradish peroxidase-conjugated secondary IgG antibodies was employed, to detect the primary antibody bound proteins.

CS(=O)(=O)N1CCN(Cc2cc3nc(-c4cccc5[nH]ncc45)nc(N4CCOCC4)c3s2)CC1 [GDC-0941]
tumor growth inhibition (TGI) ([1]; 150 mg/kg, daily oral gavage for 13 days, % TGI relative to vehicle (AUC based), highest TGI): 85%
response of tumor explants grown as xenografts to treatment ([1]; FIG. 5a legend): respond to treatment
time to progression, log-rank test versus vehicle control ([1]; all doses tested (50, 100, 150 mg/kg), p<0.0001 at 150 mg/kg): statistically significant difference
tumor growth inhibition compared to vehicle treatment ([1]; other doses tested (50 and 100 mg/kg), daily oral gavage for 13 days): tumor growth inhibition was also observed
pAKT and pS6 in tumor from treated mice [2]: significant decrease in pAKT and pS6; also recorded: evidence of PI3K pathway inhibition
